# Results as given in patent US10961202B2, “Bis-benzimidazole compounds and methods of using the same” (THE SCRIPPS RESEARCH INSTITUTE, priority 2017, dated 2021).
# System: r(CUG)12-MBNL1 complex
# Experiment: Inhibition of the r(CUG)12-MBNL1 complex measured by TR-FRET
# Assay type: biochemical
# Conditions: 80 nM RNA, 60 nM MBNL1-His6
SMILES,IC50 (Table M),IC50 (Table L)
Oc1ccc2nc(-c3ccc(-c4nc5ccc(OCCN6CCCCC6)cc5[nH]4)cc3)[nH]c2c1 [Compound 195],104 µM,
"CN(C)CCCCOc1ccc2nc(-c3ccc(-c4nc5ccc(O)cc5[nH]4)cc3)[nH]c2c1 [Compound 200, 2-(4-(6-(4-(dimethylamino)butoxy)-1H-benzo[d]imidazol-2-yl)phenyl)-1H-benzo[d]imidazol-6-ol]",32.1 µM,
"CNCCNC(=O)c1ccc(-c2nc3cc(-c4ccc5[nH]c(-c6ccc(C(=O)NCCN(C)C)cc6)nc5c4)ccc3[nH]2)cc1 [Compound 110, N-(2-(dimethylamino)ethyl)-4-(2′-(4-((2-(methylamino)ethyl)carbamoyl)phenyl)-1H,1′H-[5,5′-bibenzo[d]imidazol]-2-yl)benzamide]",,6.9 µM
N#Cc1ccc(-c2nc3cc(-c4ccc5[nH]c(-c6ccc(C#N)cc6)nc5c4)ccc3[nH]2)cc1 [Compound 100],,6.2 µM
CN(C)CCNC(=O)c1ccc(-c2nc3ccc(-c4ccc5nc(-c6ccc(C(=O)N(C)CCOCCOCc7cn(CCCNCC(=O)N8CCC[C@H]8C(=O)N8CCC[C@H]8C(=O)N8CCC[C@H]8C(=O)N8CCC[C@H]8C(=O)N(CCCn8cc(COCCOCCN(C)C(=O)c9ccc(-c%10nc%11ccc(-c%12ccc%13nc(-c%14ccc(C(=O)NCCN(C)C)cc%14)[nH]c%13c%12)cc%11[nH]%10)cc9)nn8)CC(N)=O)nn7)cc6)[nH]c5c4)cc3[nH]2)cc1 [Compound 432],11.6 µM,
"NCCNC(=O)c1ccc2nc(-c3ccc(-c4nc5ccc(C(=O)NCCN)cc5[nH]4)cc3)[nH]c2c1 [Compound 30, 2,2′-(1,4-phenylene)bis(N-(2-aminoethyl)-1H-benzo[d]imidazole-6-carboxamide)]",,18.3 µM
"N#Cc1ccc2nc(-c3ccc(-c4nc5ccc(C6=NCCN6)cc5[nH]4)cc3)[nH]c2c1 [Compound 13, 2-(4-(6-(4,5-dihydro-1H-imidazol-2-yl)-1H-benzo[d]imidazol-2-yl)phenyl)-1H-benzo[d]imidazole-6-carbonitrile]",,48 µM
CON(C)Cc1ccc2nc(-c3ccc(-c4nc5ccc(CNCCN(C)C)cc5[nH]4)cc3)[nH]c2c1 [Compound 62],,> 200 µM

# Continued, values first:
IC50 (Table M),IC50 (Table L),SMILES
52.6 µM,,CN(C)CCCOc1ccc2nc(-c3ccc(-c4nc5ccc(O)cc5[nH]4)cc3)[nH]c2c1 [Compound 249]
33.6 µM,,"CN(C)CCCCOc1ccc2nc(-c3ccc(-c4nc5ccc(OCCCCN(C)C)cc5[nH]4)cc3)[nH]c2c1 [Compound 197, 4,4′-((1,4-phenylenebis(1H-benzo[d]imidazole-2,6-diyl))bis(oxy))bis(N,N-dimethylbutan-1-amine)]"
7.1 µM,,CN(C)CCNC(=O)c1ccc(-c2nc3ccc(-c4ccc5nc(-c6ccc(C(=O)Nc7cccc(-c8cn(CCCNCC(=O)N9CCCC9C(=O)N9CCC[C@H]9C(=O)N(CCCn9cc(-c%10cccc(NC(=O)c%11ccc(-c%12nc%13ccc(-c%14ccc%15nc(-c%16ccc(C(=O)NCCN(C)C)cc%16)[nH]c%15c%14)cc%13[nH]%12)cc%11)c%10)nn9)CC(N)=O)nn8)c7)cc6)[nH]c5c4)cc3[nH]2)cc1 (stereo partly shown) [Compound 446]
95.2 µM,,Cc1cc(-c2nc3ccc(OCCCN(C)C)cc3[nH]2)ccc1-c1nc2ccc(OCCCN(C)C)cc2[nH]1 [Compound 272]
74.1 µM,,OCCOc1cc(-c2nc3ccc(O)cc3[nH]2)ccc1-c1nc2ccc(O)cc2[nH]1 [Compound 261]
14 µM,,CN(C)CCNC(=O)c1ccc(-c2nc3ccc(-c4ccc5nc(-c6ccc(C(=O)NCCCN(C)CCCNC(=O)c7ccc(-c8nc9ccc(-c%10ccc%11nc(-c%12ccc(C(=O)NCCN(C)C)cc%12)[nH]c%11c%10)cc9[nH]8)cc7)cc6)[nH]c5c4)cc3[nH]2)cc1 [Compound 451]
29 µM,,CN(C)CCCCOc1ccc(-c2nc3cc(-c4ccc5[nH]c(-c6ccc(OCCCCN(C)C)cc6)nc5c4)ccc3[nH]2)cc1 [Compound 362]
14.8 µM,,CN(C)CCNC(=O)c1ccc(-c2nc3cc(-c4ccc5[nH]c(-c6ccc(C(=O)NCCCCCCCNC(=O)c7ccc(-c8nc9cc(-c%10ccc%11[nH]c(-c%12ccc(C(=O)NCCN(C)C)cc%12)nc%11c%10)ccc9[nH]8)cc7)cc6)nc5c4)ccc3[nH]2)cc1 [Compound 421]
